These results are taken from the supplement of paper PMC11061612.

Holding throughout (experiment): Bliss excess, mean over the matrix (fraction); higher = more synergy
Assay [1] has as its system T98G (Glioblastoma). The method, boiled down: (§1)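 Cell lines in DMEM/F12 or RPMI with 10% FBS were plated in 1536-well plates, held 24 hours at 37°C, 5% CO2, then given two-drug dose matrices for 72 hours (DMSO typically 0.2%). Viability was read by CellTiter-Glo 2.0 luminescence and scaled as inhibition from 0 (vehicle wells) to 1 (blank wells). Combination Emax is the second-highest inhibition in the matrix; Bliss excess is observed combination effect minus expected EA + EB − EA·EB, EA and EB being single-agent effects.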

The test system of assay [2] is KELLY (Neuroblastoma). In a few lines:
as §1

Assay [3] relates to HCC-78 (Lung Adenocarcinoma). The method, boiled down: as §1
Assay [4] relates to HOS (Osteosarcoma). In a few lines: as §1
For assay [5], the system named is RO82-W-1 (Thyroid Gland Carcinoma). The method, boiled down: as §1
The subject of assay [6] is 42-MG-BA (Glioblastoma). The method, boiled down: as §1
For assay [7], the system named is TE-15 (Esophageal Squamous Cell Carcinoma). The method, boiled down:
as §1

Assay [8] has as its system ME-1 (Acute Myeloid Leukemia). In a few lines: as §1
Assay [9] deals with KURAMOCHI (Ovarian Carcinoma). The method, boiled down: as §1
For assay [10], the system named is CCRF-CEM (T-Lymphoblastic Leukemia). In a few lines: as §1
The subject of assay [11] is LB831-BLC (Bladder Carcinoma). In a few lines: as §1
Assay [12] has as its system SNU-5 (Gastric Carcinoma). The method, boiled down: as §1
Assay [13] concerns COLO-205 (Colorectal Carcinoma). In a few lines: as §1
For assay [14], the system named is OVCA420 (Ovarian Carcinoma). In a few lines:
as §1

The test system of assay [15] is AGS (Gastric Carcinoma). The method, boiled down: as §1
The subject of assay [16] is Hs-578-T (Breast Carcinoma). In a few lines:
as §1

Assay [17] concerns NCI-H82 (Small Cell Lung Carcinoma). In a few lines: as §1
Assay [18] deals with LU-135 (Small Cell Lung Carcinoma). The method, boiled down: as §1
The test system of assay [19] is Daoy (Other Solid Carcinomas). The method, boiled down: as §1

As for `CN(C)CCCOc1ccc(-c2ccc3ncc4c(c3c2)n(C2CCOCC2)c(=O)n4C)cn1` [AZD0156] + C=CCn1c(=O)c2cnc(Nc3ccc(N4CCN(C)CC4)cc3)nc2n1-c1cccc(C(C)(C)O)n1 [AZD1775] (first compound max 1 µM, partner max 1 µM), the Bliss excess was -0.0598 in [1]; -0.0002 in assay [2]; 0.0011 in assay [3]; -0.0196 in assay [4]; -0.119 in assay [5]; 0.0275 in assay [6]. The Bliss excess in [7] is -0.0705; in assay [8], -0.0276; in assay [9], -0.031; in assay [10], 0.0192; in assay [11], -0.104; in [12] it was -0.0705. Besides, the Bliss excess in assay [13] is -0.0229; in assay [14] it was -0.0225; in assay [15] it was -0.0517; in [16] it was -0.0457; in assay [17] it was -0.0283; in [18] it was 0.0024. In assay [19], the Bliss excess was -0.0151.
`CN(C)CCCOc1ccc(-c2ccc3ncc4c(c3c2)n(C2CCOCC2)c(=O)n4C)cn1` [AZD0156] + CCN(CCO)CCCOc1ccc2c(Nc3cc(CC(=O)Nc4cccc(F)c4)[nH]n3)ncnc2c1 [AZD2811] (first compound max 1 µM, 7x7, partner max 1 µM): the Bliss excess in assay [1] is -0.0655; in assay [2], 0.0099; in [3] it was -0.0058; in assay [4], -0.0186; in [5], -0.0556; in assay [6] it was 0.0813. The Bliss excess in assay [7] was -0.0382; in [8], -0.0275; in [9], -0.0357; in [10], 0.0045; in assay [11], -0.0356; in assay [12], 0.0036. Besides, the Bliss excess in assay [13] is 0.0035; in [14] it was -0.0308; in assay [15], -0.0047; in assay [16], -0.0708; in assay [17], 0.0315; in assay [18], -0.0008. Also, the Bliss excess in [19] amounted to 0.0069.
For `CN(C)CCCOc1ccc(-c2ccc3ncc4c(c3c2)n(C2CCOCC2)c(=O)n4C)cn1` [AZD0156] + C[C@@H]1COCCN1C2=NC(=NC(=C2)C3(CC3)[S@](=N)(=O)C)C4=C5C=CNC5=NC=C4 [AZD6738] (first compound max 1 µM, 7x7, partner max 10 µM), the Bliss excess was -0.0297 in assay [1]; 0.0044 in assay [2]; -0.0031 in assay [3]; 0.024 in assay [4]; -0.0649 in [5]; 0.0224 in [6]. Moreover, the Bliss excess was -0.0283 in assay [7]; -0.107 in assay [8]; -0.0119 in assay [9]; 0.0002 in assay [10]; -0.0333 in assay [11]; -0.0347 in assay [12]. For the same compound, the Bliss excess in assay [13] is -0.0057; in [14], 0.0052; in assay [15] it was 0.0232; in assay [16] it was -0.0157; in [17] it was 0.0286; in [18], -0.032. In addition, the Bliss excess in [19] was 0.0287.
Take `C=CCn1c(=O)c2cnc(Nc3ccc(N4CCN(C)CC4)cc3)nc2n1-c1cccc(C(C)(C)O)n1` [AZD1775] + C[C@@H]1COCCN1C2=NC(=NC(=C2)C3(CC3)[S@](=N)(=O)C)C4=C5C=CNC5=NC=C4 [AZD6738] (first compound max 1 µM, partner max 10 µM): the Bliss excess was -0.0178 in assay [1]; -0.0161 in assay [2]; 0.0101 in assay [3]; 0.106 in assay [4]; -0.0916 in assay [5]; 0.0384 in assay [6]. Besides, the Bliss excess in assay [7] was -0.0076; in assay [8], -0.0241; in assay [9], -0.0355; in assay [10], 0.0391; in assay [11], 0.0042; in [13], 0.141. The Bliss excess was 0.0441 in assay [14]; 0.113 in [15]; -0.0127 in assay [16]; -0.0044 in [18]; 0.0863 in assay [19].
Consider `C=CCn1c(=O)c2cnc(Nc3ccc(N4CCN(C)CC4)cc3)nc2n1-c1cccc(C(C)(C)O)n1` [AZD1775] + O=C(c1cc(Cc2n[nH]c(=O)c3ccccc23)ccc1F)N1CCN(C(=O)C2CC2)CC1 [Olaparib] (first compound max 1 µM, partner max 10 µM), for which the Bliss excess in assay [1] was -0.113; in assay [2] it was 0.0038; in assay [3] it was -0.029; in [4] it was -0.0389; in assay [5], -0.0724; in assay [6], 0.0093. Moreover, the Bliss excess in assay [7] was -0.106; in assay [8], -0.0873; in assay [9], -0.0358; in assay [10], -0.0381; in assay [11], -0.01; in assay [12], -0.0833. The Bliss excess in assay [13] was -0.0149; in [14], 0.0916; in [15] it was 0.0116; in assay [16] it was -0.0965; in assay [17], -0.0098; in assay [18] it was -0.0249. The Bliss excess in assay [19] was 0.044.
With `CS(=O)(=O)CCNCc1ccc(-c2ccc3ncnc(Nc4ccc(OCc5cccc(F)c5)c(Cl)c4)c3c2)o1` [Lapatinib] + NC1(c2ccc(-c3nc4ccn5c(=O)[nH]nc5c4cc3-c3ccccc3)cc2)CCC1 [MK-2206] (first compound max 10 µM, 7x7, partner max 10 µM), the Bliss excess in assay [1] was 0.0128; in assay [2], 0.0098; in assay [3] it was -0.0464; in assay [4] it was -0.0218; in assay [5], -0.0165; in assay [7] it was -0.0202. Moreover, the Bliss excess was -0.0069 in assay [8]; 0.0264 in assay [9]; 0.026 in [10]; -0.0044 in assay [11]; 0.0404 in [12]; 0.0085 in assay [14]. Also, the Bliss excess in [16] was 0.0381; in [17] it was -0.0176.
In the case of `CCc1c2c(nc3ccc(O)cc13)-c1cc3c(c(=O)n1C2)COC(=O)[C@]3(O)CC` [SN-38] + O=C(c1cc(Cc2n[nH]c(=O)c3ccccc23)ccc1F)N1CCN(C(=O)C2CC2)CC1 [Olaparib] (first compound max 0.3 µM, 7x7, partner max 10 µM), the Bliss excess was 0.107 in assay [1]; 0.0404 in [2]; 0.0106 in assay [3]; 0.0819 in [4]; -0.0448 in assay [5]; 0.0749 in assay [6]. In addition, the Bliss excess in assay [7] is 0.0207; in assay [8] it was 0.0041; in assay [9], -0.0232; in assay [10], 0.0463; in assay [11], 0.0617; in [13] it was 0.0491. Besides, the Bliss excess in assay [15] is 0.0897; in assay [16], 0.0807; in [17], -0.0065; in assay [18], 0.0545; in assay [19], 0.119.
